Assay results taken from patent publication US20230180804A1, “FLAVOR COMPOSITION, AND FOOD AND BEVERAGE” (TAKASAGO INTERNATIONAL CORPORATION, priority 2020, published 2023).

Test: Sensory evaluation of p-cresol odor masking in p-cresol-containing citrus-flavored confectionery (tablet)
Settings: for p-Cresol Odor Intensity: tablet with 200 ppb p-cresol, average score of 6 panelists, scale 0-4
Method: Lemon cold-pressed oil was added to the tablet having the composition presented in Table A at a concentration of 1 % by mass, and medium chain fatty acid triglycerides (MCT) was used to adjust p-cresol to a concentration of 0.1%, which was further added so as to reach 200 ppb in the citrus flavored confectionery. To this p-cresol-containing citrus-flavored confectionery, 1-oxacycloheptadecan-7-en-2-one was added at the concentrations presented in Table 12, and then tableting was performed to confirm the p-cresol odor intensity (masking effect) and the influence on the citrus flavor of each sample.
Six skilled panelists were selected to perform the same sensory evaluation as in Example 1. The results are as in Table 12, presenting the average score of the evaluation results for each panelist.

[1] = citrus-flavored confectionery (tablet) with 200 ppb p-cresol

O=C1CCCCCCCCCCCCCCO1 [Pentalide, pentalide]
p-Cresol Odor Intensity (4 ppb added): 2.3 points
p-Cresol Odor Intensity (40 ppb added): 1.7 points
p-Cresol Odor Intensity (40 ppt added): 2.8 points
p-Cresol Odor Intensity (400 ppb added): 1.5 points
p-Cresol Odor Intensity (400 ppt added): 2.7 points
concentration at which the compound masks the p-cresol odor and does not affect the citrus flavor, lower limit [1]: ≥ 400 ppt
concentration at which the compound masks the p-cresol odor and does not affect the citrus flavor, upper limit [1]: ≤ 400 ppb
